Experimental data published in ChEMBL document CHEMBL4038308, “Lipophosphonoxins II: Design, Synthesis, and Properties of Novel Broad Spectrum Antibacterial Agents” (J Med Chem, 2017).
Values after ≈ are worked out from the molar mass of the structure shown. Active and inactive are the calls of the source. The rule behind the calls is not given here.

Key:
Acinetobacter baumannii = assay: Antibacterial activity against Acinetobacter baumannii A3-08 after 24 hrs by microdilution method; format: functional; details: A3-08, 24 h
Escherichia coli [1] = assay: Induction of cytoplasmic membrane permeabilization in Escherichia coli CCM 3954 assessed as increase in propidium iodide fluorescence intensity at 5 mg/L by spectrofluorometric analysis; format: functional
Staphylococcus aureus [2] = assay: Antibacterial activity against methicillin-resistant Staphylococcus aureus 4591 clinical isolates after 24 hrs by microdilution method; format: functional; details: Staphylococcus aureus, 4591, 24 h
Escherichia coli [3] = assay: Antibacterial activity against Escherichia coli CCM 3954 after 24 hrs by microdilution method; format: functional; details: CCM 3954, 24 h
Bacillus subtilis [4] = assay: Antibacterial activity against Bacillus subtilis assessed as rupture of cell envelope at 10 mg/L after 10 mins by scanning electron microscopic analysis; format: functional
Escherichia coli [5] = assay: Bactericidal activity against Escherichia coli CCM 3954 assessed as bacterial count at 25 mg/L up to 6 hrs by time kill assay; format: functional
[6] = Chemical stability of compound at 50 to 500 mg/L at pH 8.8 after 24 hrs at 37 degC by LC-MS analysis; format: physicochemical; details: buffer, pH 8.8, 24 h
Lipid bilayer = assay: Binding affinity to DOPG large unilamellar vesicle assessed as carboxyfluorescein leakage at 10 mg/L after 20 secs by fluorescence-based assay relative to control
[7] = system: Staphylococcus haemolyticus; assay: Antibacterial activity against fluoroquinolne-resistant Staphylococcus haemolyticus 16568 after 24 hrs by microdilution method; format: functional; details: Staphylococcus haemolyticus, 16568, 24 h
Mus musculus = assay: Toxicity in ICR mouse assessed as mortality up to 2000 mg/kg, po administered as single dose measured for 2 weeks; format: organism-based; details: in vivo, 336 h
[8] = system: Staphylococcus epidermidis; assay: Induction of cytoplasmic membrane permeabilization in Staphylococcus epidermidis 8700/B assessed as increase in propidium iodide fluorescence intensity at 5 mg/L by spectrofluorometric analysis; format: functional
Pseudomonas aeruginosa [9] = assay: Induction of cytoplasmic membrane permeabilization in Pseudomonas aeruginosa CCM 3955 assessed as increase in propidium iodide fluorescence intensity at 5 mg/L by spectrofluorometric analysis; format: functional
Staphylococcus aureus [10] = assay: Induction of cytoplasmic membrane permeabilization in Staphylococcus aureus CCM 4223 assessed as increase in propidium iodide fluorescence intensity at 5 mg/L by spectrofluorometric analysis; format: functional
TERT-RPE1 [11] = assay: Cytotoxicity against human RPE1 cells assessed as reduction in cell viability after 48 hrs by ATPlite reagent based assay; details: tert-rpe1, 48 h
[12] = Pore forming activity across black lipid bilayer membranes assessed as induction of variation in membrane current by measuring pore conductance at 5 ug/ml
Staphylococcus aureus [13] = assay: Bactericidal activity against Staphylococcus aureus CCM 4223 assessed as reduction in bacterial count at 6.25 to 25 mg/L after 15 mins by time kill assay; format: functional
Oryctolagus cuniculus [14] = assay: Toxicity in topically applied rabbit assessed as skin irritation measured by measuring physiological abnormalities up to 7 days post dose; details: in vivo, topical_or_ocular, 168 h
Bacillus subtilis [15] = assay: Antibacterial activity against Bacillus subtilis assessed as inhibition of peptidoglycan synthesis at 2.5 mg/L after 50 mins by [3H]-N-acetylglucosamine incorporation assay; format: functional
Burkholderia multivorans = assay: Antibacterial activity against Burkholderia multivorans after 24 hrs by microdilution method; format: functional
Oryctolagus cuniculus [16] = assay: Toxicity in topically applied rabbit assessed as skin irritation measured up to 14 days post dose; details: in vivo, topical_or_ocular, 336 h
Escherichia coli [17] = assay: Bactericidal activity against Escherichia coli CCM 3954 assessed as reduction in bacterial count at 6.25 to 12.5 mg/L after 24 hrs by time kill assay; format: functional
HepG2 [18] = assay: Cytotoxicity against human HepG2 cells assessed as disruption of cell membrane integrity after 4 hrs by CytoTox-ONE-based assay; details: hepg2, 4 h
Staphylococcus aureus [19] = assay: Bactericidal activity against Staphylococcus aureus CCM 4223 assessed as reduction in bacterial count at 12.5 mg/L after 6 hrs by time kill assay; format: functional
BJ = assay: Cytotoxicity against human BJ cells assessed as reduction in cell viability after 48 hrs by ATPlite reagent based assay
Salmonella enteritidis = assay: Antibacterial activity against Salmonella enteritidis S2-25 after 24 hrs by microdilution method; format: functional, Salmonella enterica subsp. enterica serovar Enteritidis; details: Salmonella enterica, S2-25, 24 h
Bacillus subtilis [20] = assay: Antibacterial activity against Bacillus subtilis assessed as inhibition of DNA synthesis at 2.5 mg/L after 50 mins by [3H]thymidine incorporation assay; format: functional
Bacillus subtilis [21] = assay: Antibacterial activity against Bacillus subtilis assessed as inhibition of protein synthesis at 2.5 mg/L after 50 mins by [35S]-methionine incorporation assay; format: functional
Bacillus subtilis [22] = assay: Antibacterial activity against Bacillus subtilis assessed as inhibition of RNA synthesis at 2.5 mg/L after 50 mins by [3H]-uridine incorporation assay; format: functional
Escherichia coli [23] = assay: Antibacterial activity against Escherichia coli 16702 after 24 hrs by microdilution method; format: functional; details: Escherichia coli, 16702, 24 h
TERT-RPE1 [24] = assay: Induction of apoptosis in human RPE1 cells assessed as caspase 3/7 activation up to 80 mg/L after 4 hrs by caspase-Glo 3/7 luminescent assay; format: cell-based; details: tert-rpe1, 4 h
Staphylococcus aureus [25] = assay: Antibacterial activity against Staphylococcus aureus CCM 4223 after 24 hrs by microdilution method; format: functional; details: CCM 4223, 24 h
Enterococcus faecalis = assay: Antibacterial activity against Enterococcus faecalis CCM 4224 after 24 hrs by microdilution method; format: functional; details: CCM 4224, 24 h
Pseudomonas aeruginosa [26] = assay: Antibacterial activity against Pseudomonas aeruginosa CCM 3955 after 24 hrs by microdilution method; format: functional; details: CCM 3955, 24 h
Pseudomonas aeruginosa [27] = assay: Antibacterial activity against Pseudomonas aeruginosa 16575 after 24 hrs by microdilution method; format: functional; details: Pseudomonas aeruginosa, 16575, 24 h
Enterococcus faecium = assay: Antibacterial activity against vancomycin-resistant Enterococcus faecium 419/ana clinical isolates after 24 hrs by microdilution method; format: functional
Streptococcus agalactiae = assay: Antibacterial activity against Streptococcus agalactiae after 24 hrs by microdilution method; format: functional
J774.A1 = assay: Cytotoxicity against mouse J774A.1 cells assessed as damage to cell membrane by measuring propidium iodide intake at 5 mg/L by spectrofluorometric analysis; format: cell-based
[28] = Chemical stability of compound at 50 to 500 mg/L at pH 0.18 after 24 hrs at 37 degC by LC-MS analysis; format: physicochemical; details: buffer, pH 0.18, 24 h
HepG2 [29] = assay: Cytotoxicity against human HepG2 cells assessed as reduction in cell viability after 48 hrs by ATPlite reagent based assay; details: hepg2, 48 h
Bacillus subtilis [30] = assay: Antibacterial activity against Bacillus subtilis assessed as inhibition of plasma membrane lipids synthesis at 2.5 mg/L after 50 mins by [3H]-sodium acetate incorporation assay; format: functional
Oryctolagus cuniculus [31] = assay: Toxicity in topically dosed rabbit assessed as skin irritation by measuring behavioral abnormalities measured up to 7 days post dose; format: organism-based; details: in vivo, topical_or_ocular, 168 h
HepG2 [32] = assay: Induction of apoptosis in human HepG2 cells assessed as caspase 3/7 activation up to 80 mg/L after 4 hrs by caspase-Glo 3/7 luminescent assay; format: cell-based; details: hepg2, 4 h

## CCCCCCCCCCCCCCOP(=O)(CCN(CCCN)CCCN)OC[C@H]1O[C@@H](n2ccc(=O)[nH]c2=O)[C@H](O)[C@@H]1O (some centres not stated)
Acinetobacter baumannii
  MIC: 12.5 µg/mL (≈ 18.9 µM)
Escherichia coli [1]
  Activity: Active
Staphylococcus aureus [2]
  MIC: 6.25 µg/mL (≈ 9.44 µM)
Escherichia coli [3]
  MIC: 6.25 µg/mL (≈ 9.44 µM)
Bacillus subtilis [4]
  Activity: Active
Escherichia coli [5]
  Activity: 0
[6]
  Stability: Stable
Lipid bilayer
  Activity: Active
[7]
  MIC: 1.56 µg/mL (≈ 2.36 µM)
Mus musculus
  Activity: Non-Toxic
[8]
  Activity: Active
Pseudomonas aeruginosa [9]
  Activity: Active
Staphylococcus aureus [10]
  Activity: Active
TERT-RPE1 [11]
  Activity: 43 mg/L
[12]
  Activity: 73 to 151 pS
Staphylococcus aureus [13]
  Activity: Active
Oryctolagus cuniculus [14]
  Activity: Non-Toxic
Bacillus subtilis [15]
  inhibition: inactive
Burkholderia multivorans
  MIC: 50 µg/mL (≈ 75.5 µM)
Oryctolagus cuniculus [16]
  Activity: Non-Toxic
Escherichia coli [17]
  Activity: Active
HepG2 [18]
  Activity: Non-Toxic
Staphylococcus aureus [19]
  Activity: Active
BJ
  Activity: 30.7 mg/L
Salmonella enteritidis
  MIC: 3.13 µg/mL (≈ 4.73 µM)
Bacillus subtilis [20]
  inhibition: inactive
Bacillus subtilis [21]
  inhibition: inactive
Bacillus subtilis [22]
  inhibition: inactive
Escherichia coli [23]
  MIC: 3.13 µg/mL (≈ 4.73 µM)
TERT-RPE1 [24]
  Activity: Non-Toxic
Staphylococcus aureus [25]
  MIC: 6.25 µg/mL (≈ 9.44 µM)
Enterococcus faecalis
  MIC: 25 µg/mL (≈ 37.8 µM)
Pseudomonas aeruginosa [26]
  MIC: 0.78 µg/mL (≈ 1.18 µM)
Pseudomonas aeruginosa [27]
  MIC: 1.56 µg/mL (≈ 2.36 µM)
Enterococcus faecium
  MIC: 100 µg/mL (≈ 151 µM)
Streptococcus agalactiae
  MIC: 3.13 µg/mL (≈ 4.73 µM)
J774.A1
  Activity: Non-Toxic
[28]
  Stability: Stable
HepG2 [29]
  Activity: 40.3 mg/L
Bacillus subtilis [30]
  inhibition: inactive
Oryctolagus cuniculus [31]
  Activity: Non-Toxic
HepG2 [32]
  Activity: Non-Toxic
